Assay results published in patent US11866405B2, “Substituted indazoles as IRAK4 inhibitors” (AstraZeneca AB, priority 2020, dated 2024).
Like-named read-outs stand apart in the source and are kept apart here.

What was measured:
[1] = system: IL-1β stimulated IL-8 release in hTHP1 cells; experiment: IL-1β-induced IL-8 release in human THP-1 monocyte cell line; format: cell-based; conditions: THP-1 cells, IL-1β 1.8 ng/mL
Description: Effect of IRAK4 Inhibitors on IL-1β-Induced Cytokine Release in Human THP-1 Monocyte Cell Line
THP-1 cells were cultured in RPMI 1640 (Gibco 72400-021) containing 10% FBS (Gibco 10270-106), 1 mM Na-pyruvate (Gibco 11360-070) and 100 U/mL Penicillin-Streptomycin (Gibco 15140-122). Cells were plated at 5×10^4 cells per well in 384 well Echo certified plates (Labcyte PPT-0200) to which compounds had been added at various concentrations (10 point half log dose response with a final top concentration of 10 μM) using an Echo 655 (Labcyte Inc). The plate was incubated for 1 h at 37° C., then recombinant […] (R&D Systems 201-LB-025/CF) was added to a final concentration of 1.8 ng/mL. The plates were incubated at 37° C. for 18h. The plates were centrifuged at 250×g for four minutes, then 1.6 μL of the cell supernatant was transferred to a white low volume 384 well plate (Greiner #784075) using acoustic dispensing on an Echo 655. Next, 200 nL of acceptor bead (5 mg/mL) and biotinylated anti-IL-8 antibody (500 nM) was added using acoustic dispensing (beads and antibody were from a PerkinElmer 18 Alpha LISA detection kit, AL224C). The plate was sealed, briefly centrifuged, then incubated at room temperature for 1 h. Afterwards, 200 nL of donor bead solution (5 mg/mL) was added, the plate sealed and briefly centrifuged, then incubated for 1 h before being read on an Envision plate reader to allow determination the concentration of IRAK4 inhibitor required to effect a 50% reduction in the amount of IL-8 released following IL-1β stimulation in THP1 cells (Table 2). The quantified data were analysed in Genedata Screener 15 (Genedata AG). Data presented are the geometric mean of at least n=2, or as denoted by an * are obtained from a single experiment.

[2] = molecular target: IRAK4 auto-phosphorylation (Homo sapiens (Human), UniProt Q9NWZ3); experiment: IRAK4 phosphorylation cell assay in IL-1β-stimulated Karpas-299 cells; format: cell-based; conditions: IL-1β 22.7 ng/mL, pIRAK4 (Thr345/Ser346), geometric mean of at least 2 experiments
Sequence of IRAK4 auto-phosphorylation (Q9NWZ3 whole entry): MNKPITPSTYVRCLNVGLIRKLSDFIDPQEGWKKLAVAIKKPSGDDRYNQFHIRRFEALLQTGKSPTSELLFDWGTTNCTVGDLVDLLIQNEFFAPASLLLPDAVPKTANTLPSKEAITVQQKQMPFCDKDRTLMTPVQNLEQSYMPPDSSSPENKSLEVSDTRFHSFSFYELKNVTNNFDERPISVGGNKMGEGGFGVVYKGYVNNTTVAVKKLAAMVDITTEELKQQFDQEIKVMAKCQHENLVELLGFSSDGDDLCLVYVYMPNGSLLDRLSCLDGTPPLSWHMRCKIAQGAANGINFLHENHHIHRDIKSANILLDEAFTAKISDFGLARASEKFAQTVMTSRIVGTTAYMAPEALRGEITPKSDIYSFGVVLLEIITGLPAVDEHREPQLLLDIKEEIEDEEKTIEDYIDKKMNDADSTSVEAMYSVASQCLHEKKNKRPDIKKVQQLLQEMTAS
In short: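 Karpas-299 cells were preincubated 1 h at 37 °C with compound (10-point half-log series, top 30 μM), then stimulated 10 min with 22.7 ng/mL IL-1β. Cells were fixed and stained for pIRAK4 (Thr345/Ser346), and per-cell fluorescence was quantified by high-content imaging. IC50 values are geometric means of at least 2 experiments.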

[3] = molecular target: human recombinant IRAK4 protein (Homo sapiens (Human), UniProt Q9NWZ3); experiment: IRAK4 enzyme assay (mass spectrometry readout); format: biochemical; conditions: 3 mM ATP, 0.2 nM enzyme; geometric mean of at least n=2, * single experiment
Sequence of human recombinant IRAK4 protein (Q9NWZ3 whole entry): as above
In short: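 0.2 nM IRAK4 preincubated 15 min at room temperature with compound (10-point half-log series, top 1 μM or 10 μM) in pH 7.4 Tris buffer with 3 mM ATP; 10 μM peptide substrate added, 2 h at room temperature, formic acid stop. Phospho/unphospho peptide ratio by LC-MS/MS; potency from curve fit, geometric mean of n≥2 or single run.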

[4] = Homo sapiens, THP-1, 18 h, geometric mean of at least n=2, * n = 1, read-out: hTHP1, IL1β stim, IL8 release red. IC50
[5] = 18 h, geometric mean of at least n=2, * n = 1, read-out: hTHP1, IL1β stim, IL8 release red. IC50

IC50 [1, 4] [nM]	IC50 [2] [nM]	IC50 [3] [nM]	IC50 [1, 5] [nM]	Structure (SMILES)
70	28	1.5		COc1cc2nn([C@H]3CC[C@H](O)[C@@H](C)C3)cc2cc1C(=O)Nc1cnc2cccnn12 (single isomer, unassigned) [Example 80]
84	53	1.6		COc1cc2nn([C@H]3CC[C@@]4(CC3)CC(=O)N(C)C4)cc2cc1C(=O)Nc1cnc2cccnn12 [Example 68, N-(Imidazo[1,2-b]pyridazin-3-yl)-6-methoxy-2-((5s,8s)-2-methyl-3-oxo-2-azaspiro[4.5]decan-8-yl)-2H-indazole-5-carboxamide]
15	22	0.5		COc1cc2nn([C@H]3CC[C@]4(CC3)CC(=O)N(C)C4)cc2cc1C(=O)Nc1cnc2cccnn12 [Example 69, N-(Imidazo[1,2-b]pyridazin-3-yl)-6-methoxy-2-((5r,8r)-2-methyl-3-oxo-2-azaspiro[4.5]decan-8-yl)-2H-indazole-5-carboxamide]
31	36	1.9		COc1cc2nn([C@H]3CC[C@]4(CC3)CC(=O)N(C)C4)cc2cc1C(=O)Nc1cnn2cccnc12 [Example 86, 6-methoxy-2-((5r,8r)-2-methyl-3-oxo-2-azaspiro[4.5]decan-8-yl)-N-(pyrazolo[1,5-a]pyrimidin-3-yl)-2H-indazole-5-carboxamide]
49	88	2.3		COc1cc2nn([C@H]3CC[C@H](O)C[C@@H]3C)cc2cc1C(=O)Nc1cnc2cccnn12 [Example 91, 2-((1S,2S,4S)-4-hydroxy-2-methylcyclohexyl)-N-(imidazo[1,2-b]pyridazin-3-yl)-6-methoxy-2H-indazole-5-carboxamide]
28	30	1.6		COc1cc2nn([C@@H]3CC[C@](C)(O)C[C@H]3C)cc2cc1C(=O)Nc1cnc2cccnn12 [Example 92, 2-((1R,2R,4S)-4-hydroxy-2,4-dimethylcyclohexyl)-N-(imidazo[1,2-b]pyridazin-3-yl)-6-methoxy-2H-indazole-5-carboxamide]
30	8	0.4		COc1cc2nn([C@@H]3CC[C@@](C)(O)C[C@H]3C)cc2cc1C(=O)Nc1cnc2cccnn12 [Example 93, 2-((1R,2R,4R)-4-hydroxy-2,4-dimethylcyclohexyl)-N-(imidazo[1,2-b]pyridazin-3-yl)-6-methoxy-2H-indazole-5-carboxamide]

More lines, now with the values behind:

Structure (SMILES)	IC50 [1, 4] [nM]	IC50 [2] [nM]	IC50 [3] [nM]	IC50 [1, 5] [nM]
COc1cc2nn([C@H]3CC[C@H](O)C[C@@H]3C)cc2cc1C(=O)Nc1cnn2cccnc12 (single isomer, unassigned) [Example 38]	31	186	4.6	
C[C@H]1C[C@@H](O)CC[C@@H]1n1cc2cc(C(=O)Nc3cnn4cccnc34)c(OC3CC3)cc2n1 (single isomer, unassigned) [Example 45]	46	70	1.2	
COc1cc2nn([C@@H]3CCC4(C[C@@H]3C)CN(C(C)=O)C4)cc2cc1C(=O)Nc1cnc2cccnn12 (single isomer, unassigned) [Example 64]		38	< 0.5	18
COc1cc2nn([C@@H]3CCC4(C[C@@H]3C)CN(C(C)=O)C4)cc2cc1C(=O)Nc1cnc2cccnn12 (single isomer, unassigned) [Example 65]		44	1.1	52
COc1cc2nn([C@@H]3CCC4(C[C@H]3C)CN(C(C)=O)C4)cc2cc1C(=O)Nc1cnc2cccnn12 (single isomer, unassigned) [Example 66]		23	< 0.5	18
COc1cc2nn([C@@H]3CCC4(C[C@H]3C)CN(C(C)=O)C4)cc2cc1C(=O)Nc1cnc2cccnn12 (single isomer, unassigned) [Example 67]		144	4.3	91
COc1cc2nn([C@H]3CC[C@@H](O)CC3)cc2cc1C(=O)Nc1cnc2cccnn12 [Example 7, 2-((1s,4s)-4-Hydroxycyclohexyl)-N-(imidazo[1,2-b]pyridazin-3-yl)-6-methoxy-2H-indazole-5-carboxamide]		111	6	48
COc1cc2nn([C@H]3CC[C@H](O)CC3)cc2cc1C(=O)Nc1cnc2cccnn12 [Example 8, 2-((1r,4r)-4-Hydroxycyclohexyl)-N-(imidazo[1,2-b]pyridazin-3-yl)-6-methoxy-2H-indazole-5-carboxamide]		58	2.8	50
O=C(Nc1cnn2cccnc12)c1cc2cn([C@@H]3CCC[C@H](O)C3)nc2cc1OC1CC1 [Example 17, 6-cyclopropoxy-2-((1R,3S)-3-hydroxycyclohexyl)-N-(pyrazolo[1,5-a]pyrimidin-3-yl)-2H-indazole-5-carboxamide]	24	50	1	
O=C(Nc1cnn2cccnc12)c1cc2cn([C@H]3CCC[C@@H](O)C3)nc2cc1OC1CC1 [Example 18]		19	< 0.6	21
COc1cc2nn(C3CCC4(CC3)CN(C(C)=O)C4)cc2cc1C(=O)Nc1cnc2cccnn12 [Example 21, 2-(2-Acetyl-2-azaspiro[3.5]nonan-7-yl)-N-(imidazo[1,2-b]pyridazin-3-yl)-6-methoxy-2H-indazole-5-carboxamide]	17	36	0.7	
COc1cc2nn([C@H]3CC[C@H](N(C)C(C)=O)CC3)cc2cc1C(=O)Nc1cnc2cccnn12 [Example 23, N-(Imidazo[1,2-b]pyridazin-3-yl)-6-methoxy-2-((1r,4r)-4-(N-methylacetamido)cyclohexyl)-2H-indazole-5-carboxamide]	7	5	0.2	
COc1cc2nn([C@H]3CC[C@H](N(C)C(C)=O)CC3)cc2cc1C(=O)Nc1cnn2cnccc12 [Example 25, 6-Methoxy-2-((1r,4r)-4-(N-methylacetamido)cyclohexyl)-N-(pyrazolo[1,5-c]pyrimidin-3-yl)-2H-indazole-5-carboxamide]		19	1.4	23
O=C(Nc1cnn2cccnc12)c1cc2cn([C@H]3CC[C@H](O)CC3)nc2cc1OC1CC1 [Example 57, 6-Cyclopropoxy-2-((1r,4r)-4-hydroxycyclohexyl)-N-(pyrazolo[1,5-a]pyrimidin-3-yl)-2H-indazole-5-carboxamide]	35	60	0.8	
